“And” between values parts separate entries of the source, which are not always exact repeats. Equal entries are not always repeated.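 In this assay, cells in 96-well plates receive the compound at five concentrations for 48 hours. Endpoints are linearly interpolated between the surrounding concentrations. GI50: concentration for 50% inhibition of growth. The concentration for full growth arrest is given as TGI.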
Experiments:
Test in all cases: DTP human tumour cell line panel, 48 h
[1] = system: EKVX NSCLC
[2] = system: HCC-2998 colon
[3] = system: SN12C renal
[4] = system: COLO 205 colon
[5] = system: IGROV1 ovarian
[6] = system: KM12 colon
[7] = system: MCF7 breast
[8] = system: UACC-257 melanoma
[9] = system: SR leukemia
[10] = system: HOP-92 NSCLC

Molecule COc1ccccc1C1=C(Nc2ccccc2)C(=O)NC1=O has a GI50 [1] greater than 25 µM, a TGI [1] greater than 25 µM and a GI50 [2] greater than 25 µM. The TGI [2] was greater than 25 µM, the GI50 [3] was greater than 25 µM and the TGI [3] was greater than 25 µM. It also gave a GI50 [4] greater than 18.9 µM, a TGI [4] greater than 25 µM and a GI50 [5] greater than 25 µM. For the same molecule, the TGI [5] was greater than 25 µM, the GI50 [6] was greater than 23.8 µM and the TGI [6] was greater than 25 µM. The GI50 [7] was greater than 25 µM and the TGI [7] was greater than 25 µM.

Molecule Clc1ccc(-c2csc(Nc3cccc(-c4csc(-c5ccccc5)n4)c3)n2)cc1 has a GI50 [8] of 14.9 µM, a TGI [8] of 29 µM and a GI50 [1] of 8.36 µM. It also gave a TGI [1] of 17.7 µM, a GI50 [9] of 6.8 µM and a TGI [9] of 28.7 µM. The GI50 [3] was 7.6 µM, the TGI [3] was 16.8 µM and the GI50 [4] was 10 µM. It also gave a TGI [4] of 23.1 µM, a GI50 [5] of 13.5 µM and a TGI [5] of 39 µM. The GI50 [6] was 15.7 µM, the TGI [6] was greater than 50 µM and the GI50 [10] was 12.5 µM. It also gave a TGI [10] greater than 50 µM, a GI50 [7] of 10.3 µM and a TGI [7] greater than 50 µM.

Cc1nnc2c3nnc(C)n3c3ccccc3n12 showed a TGI [8] greater than 100 µM, a TGI [1] greater than 100 µM and a TGI [2] greater than 100 µM. It also gave a TGI [3] greater than 100 µM, a TGI [4] greater than 100 µM and a TGI [5] greater than 100 µM. For the same molecule, the TGI [6] was greater than 100 µM and the TGI [10] was greater than 100 µM.

For O=S(=O)(O)c1ccc(N=Nc2nc(C(F)(F)F)c(C(F)(F)F)[nH]2)cc1, the TGI [8] was greater than 100 µM, the TGI [1] was greater than 100 µM and the TGI [9] was 69.9 µM. It also gave a TGI [3] greater than 100 µM, a TGI [4] greater than 100 µM and a TGI [5] greater than 100 µM. It also gave a TGI [6] greater than 100 µM and a TGI [10] of 31.6 µM.

For CN(C)C(=Nc1nc(=[N+](C)C)ss1)N(C)C, the TGI [8] was greater than 100 µM, the TGI [1] was greater than 100 µM and the TGI [2] was greater than 100 µM. For the same molecule, the TGI [3] was greater than 100 µM, the TGI [5] was greater than 100 µM and the TGI [6] was greater than 100 µM. For the same molecule, the TGI [10] was greater than 100 µM.

COC(=O)C1=C(c2ccc(OC)c(OC)c2)OC(c2cc(OC)c(OC)c(OC)c2)C1 (stereo not drawn) was tested, and the TGI [8] was greater than 100 µM, the TGI [1] was greater than 100 µM and the TGI [2] was greater than 100 µM. It also gave a TGI [3] greater than 100 µM, a TGI [5] greater than 100 µM and a TGI [6] greater than 100 µM. For the same molecule, the TGI [10] was 65.2 µM.

In the case of CN=C(NC(=S)N(C)C)N(C)C, the TGI [8] is reported as greater than 100 µM, the TGI [1] is reported as greater than 100 µM and the TGI [9] is reported as greater than 100 µM. The TGI [2] was greater than 100 µM, the TGI [3] was greater than 100 µM and the TGI [5] was greater than 100 µM. The TGI [6] was greater than 100 µM and the TGI [10] was greater than 100 µM.

C=C1C(=O)O[C@H]2[C@H]1CC/C(COC(=O)CCSCCC(=O)OC/C1=C/CC[C@@]3(C)O[C@H]3[C@H]3OC(=O)C(=C)[C@@H]3CC1)=C\CC[C@@]1(C)O[C@@H]21 showed a GI50 [8] of 1.64 µM, a TGI [8] of 3.6 µM and a GI50 [1] of 1.42 µM. The TGI [1] was 3.39 µM, the GI50 [2] was 1.89 µM and the TGI [2] was 3.52 µM. The GI50 [3] was 1.35 µM, the TGI [3] was 3.62 µM and the GI50 [4] was 0.558 µM. It also gave a TGI [4] of 1.97 µM, a GI50 [5] of 1.3 µM and a TGI [5] of 3.25 µM. It also gave a GI50 [6] of 1.75 µM, a TGI [6] of 3.52 µM and a GI50 [10] of 1.26 µM. For the same molecule, the TGI [10] was 2.7 µM, the GI50 [7] was 0.418 µM and the TGI [7] was 1.86 µM.

CC(=O)NC1C(OCc2ccccc2)OC(CO)C(O)C1OC(C)C(=O)N[C@@H](C)C(=O)N[C@H](CCC(=O)OCCNc1c2ccccc2nc2cccc([N+](=O)[O-])c12)C(N)=O (stereo partly drawn) gave a TGI [8] of 0.0201 µM, a TGI [1] of 0.00472 µM and a TGI [9] greater than 0.1 µM. The TGI [2] was 0.00378 µM, the TGI [3] was 0.0313 µM and the TGI [4] was 0.0026 µM. The TGI [5] was 0.0679 µM and 0.022 µM, the TGI [6] was 0.00538 µM and the TGI [10] was 0.00616 µM.

In the case of Cn1nc(-c2ccc(Cl)cc2)nc2c(=O)n(C)c(=O)nc1-2, the GI50 [8] is reported as 0.794 µM, the TGI [8] is reported as 1.54 µM and the GI50 [1] is reported as 1.11 µM. The TGI [1] was 4.21 µM, the GI50 [2] was 1.18 µM and the TGI [2] was 3.83 µM. It also gave a GI50 [3] of 0.706 µM, a TGI [3] of 1.45 µM and a GI50 [4] of 0.491 µM. The TGI [4] was 1.93 µM, the GI50 [5] was 0.842 µM and the TGI [5] was 3.67 µM. It also gave a GI50 [6] of 1.35 µM, a TGI [6] of 5.5 µM and a GI50 [10] of 1.72 µM. The TGI [10] was 4.99 µM, the GI50 [7] was 0.594 µM and the TGI [7] was 1.57 µM.

For CC(C)(C)c1ccc(OC(=O)Nc2ccc(O)c(C(=O)O)c2)cc1, the TGI [8] was greater than 100 µM, the TGI [1] was greater than 100 µM and the TGI [9] was greater than 100 µM. The TGI [3] was greater than 100 µM, the TGI [4] was greater than 100 µM and the TGI [5] was greater than 100 µM. The TGI [6] was greater than 100 µM, the TGI [10] was greater than 100 µM and the TGI [7] was greater than 100 µM.

Work on C[N+](C)(C)CC1CCC/C1=N/O (stereo not drawn) yielded a TGI [8] greater than 100 µM, a TGI [1] greater than 100 µM and a TGI [9] of 54.2 µM. For the same molecule, the TGI [2] was greater than 100 µM, the TGI [3] was greater than 100 µM and the TGI [4] was 38.7 µM. The TGI [5] was greater than 100 µM, the TGI [6] was greater than 100 µM and the TGI [10] was greater than 100 µM.

In the case of COC(=O)C(=CNC(N)=O)C(=O)OC, the TGI [8] is reported as greater than 100 µM, the TGI [1] is reported as greater than 100 µM and the TGI [9] is reported as greater than 100 µM. The TGI [3] was greater than 100 µM, the TGI [4] was greater than 100 µM and the TGI [5] was greater than 100 µM. It also gave a TGI [6] greater than 100 µM, a TGI [10] greater than 100 µM and a TGI [7] greater than 100 µM.

For O=C(CC1(O)C(=O)Nc2ccc(Br)cc21)c1ccc(Cl)cc1Cl (stereo not drawn), the TGI [8] was greater than 100 µM, the TGI [1] was greater than 100 µM and the TGI [9] was 50.7 µM. For the same molecule, the TGI [2] was greater than 100 µM, the TGI [3] was greater than 100 µM and the TGI [4] was greater than 100 µM. It also gave a TGI [5] greater than 100 µM and a TGI [6] greater than 100 µM.

With CS(=O)(=O)NNS(=O)(=O)c1ccccc1 the TGI [8] was greater than 100 µM, the TGI [1] was greater than 100 µM and the TGI [9] was greater than 100 µM. For the same molecule, the TGI [2] was greater than 100 µM, the TGI [3] was greater than 100 µM and the TGI [4] was greater than 100 µM. The TGI [5] was greater than 100 µM and the TGI [6] was greater than 100 µM.

CCCCCCCCCCCCCCCCNCCCN(C)CCCN showed a TGI [8] of 40.4 µM, a TGI [1] of 42.8 µM and a TGI [9] of 42.2 µM. The TGI [2] was 33.4 µM, the TGI [3] was 41 µM and the TGI [4] was 46.6 µM. For the same molecule, the TGI [5] was 43.1 µM and the TGI [6] was 33 µM.

COc1cccc(CSCC(=O)O)c1 was tested, and the TGI [8] was greater than 100 µM, the TGI [1] was greater than 100 µM and the TGI [3] was greater than 100 µM. For the same molecule, the TGI [4] was greater than 100 µM, the TGI [5] was greater than 100 µM and the TGI [6] was greater than 100 µM. For the same molecule, the TGI [10] was greater than 100 µM and the TGI [7] was greater than 100 µM.

Molecule O=C(O)C1CCCCC1c1c2ccc(=O)c(O)c-2oc2c(O)c(O)ccc12 (stereo not drawn) has a TGI [8] greater than 100 µM, a TGI [1] greater than 100 µM and a TGI [9] greater than 100 µM. The TGI [3] was 39.3 µM, the TGI [4] was greater than 100 µM and the TGI [5] was greater than 100 µM. The TGI [6] was greater than 100 µM, the TGI [10] was greater than 100 µM and the TGI [7] was 37.5 µM.

With COC(=O)CCC1CCc2c(OC)ccc(OC)c2C1=O (stereo not drawn) the TGI [8] was greater than 100 µM, the TGI [1] was greater than 100 µM and the TGI [9] was greater than 100 µM. It also gave a TGI [2] greater than 100 µM, a TGI [3] greater than 100 µM and a TGI [4] greater than 100 µM. The TGI [5] was greater than 100 µM and the TGI [6] was greater than 100 µM.

In the case of O=C(CCC(=O)Nc1ccc(Cl)c(Cl)c1)CC(=O)c1ccc(F)cc1, the TGI [8] is reported as greater than 100 µM, the TGI [1] is reported as greater than 100 µM and the TGI [9] is reported as greater than 100 µM. The TGI [2] was greater than 100 µM, the TGI [3] was greater than 100 µM and the TGI [4] was greater than 100 µM. It also gave a TGI [5] greater than 100 µM, a TGI [6] greater than 100 µM and a TGI [10] greater than 100 µM.

Molecule N#CC1CCCCOCCOCCOCCOCCOCCCCCC1=O (stereo not drawn) has a TGI [8] greater than 100 µM, a TGI [1] greater than 100 µM and a TGI [9] greater than 100 µM. For the same molecule, the TGI [2] was greater than 100 µM, the TGI [3] was greater than 100 µM and the TGI [4] was greater than 100 µM. The TGI [5] was greater than 100 µM and the TGI [6] was greater than 100 µM.
